Assay results taken from patent US20070134281A1, “Investigate the potential of using beetle odours to deter slugs in vining peas” (priority 2004, published 2007).
Like-named read-outs stand apart in the source and are kept apart here.

Experiments:
[1] = tested on: Deroceras reticulatum slugs; test: Petri dish choice test (control and test sector) with test solutions made from commercial organic acids; assay type: in vivo; details: 24 hour period, n=10 replicates, laboratory
Protocol: Next, using the results obtained from Mass spectrometry to make up the test solutions with these organic acids, the behaviour of the slugs in the presence of beetle odours was now investigated. Initially this test was carried out inside the laboratory in the manner previously shown for pygidial secretions using a control and test sector to show the slug's choice overnight within a petri dish. […] However the results of all these tests still remains to be analysed and will appear in the PhD thesis only after using a computer software for image analysis.

[2] = tested on: Deroceras reticulatum slugs; test: Glasshouse study of slug feeding damage on growing pea plants; assay type: in vivo; details: 2nd day of test
Description: A suitable experimental design had to be substituted for this glasshouse study, based on the principles to show avoidance behaviour. This was also remarkably achieved on a five point scale to record slug behaviour, under a simple experimental procedure which lasted for only five days, to conclude this semi-field trial just by using the existing facilities alone at […] Housewares Ltd who manufactured their items for supermarket sale, provided plastic bowls in different colours to suit a random style experiment to show this current field study inside the glasshouse. Whifford Plastics Ltd produced fluon, a test chemical which had been used before to stop slugs from escaping the planned experiment in Cardiff University, was sold in litres sufficient to cover the sides of these plastic bowls by using only a simple paint brush. F. A Smith a soil merchant supplying for Cardiff University Horticultural services at Talybont, produced John Innes Potting compost No 2 commonly used in a nursery for growing peas, ideally because the sterilised soil with peat and grit added has a base fertiliser for quick germination. […] To keep the peas nice and damp and the slugs happy, the multipurpose peat based compost from the local B&Q store was adequate to support the trays of peas inside the plastic bowls which was 2⁄3 filled with this moist peat and the tray positioned so that the rim is flush with the surface of the peat. All the slugs used in this experiment were collected from the fields around Talybont, where they were actively seen to be searching for food lurking under the plants during the early hours of the morning at sunrise and pre-starved for a further 24 hours at 15° C., 80% RH, 12 hour light: dark regime, prior to testing inside the glasshouse. These were also the same species of slugs causing contamination during the routine operation in […] has a latin name Deroceras reticulatum, already well known for its physical damage to other crops under use in the UK. […]

[3] = cited from earlier work

SMILES	Avoidance of treated area (proportion of total area of petri dish covered by slug trails) [1]	Feeding damage by slugs on growing pea plants [2]	Solubility in water ([3]; cold water)	Solubility in water ([3]; hot water)	Solubility in water ([3]; 20° C.)
O=CO [Formic Acid]	scare slugs stiff	–	–	–	–
CC(=O)O [Acetic Acid]	–	Concern	–	–	–
C/C=C(\C)C(=O)O [Tiglic Acid]	–	Concern	sparingly	soluble	–
C=C(C)C(=O)O [Methacrylic Acid]	–	damage was effectively reduced	–	–	9.7 g/100 ml (20° C.)
